Results published in patent US11753397B2, “Cereblon binders for the degradation of ikaros” (C4 Therapeutics, Inc., priority 2018, dated 2023).

System: NCIH929.1 cells
Test: Cell viability assay (CellTiter-Glo 2.0, ATP quantification)
Format: cell-based
Details: NCIH929.1 cell viability, CellTiter-Glo 2.0, 96 hr incubation, top concentration 1 μM
In short: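 Read-out is CellTiter-Glo 2.0 luminescence (ATP), after 96 h compound exposure at 37 °C, with a day-0 plate giving the CT0 baseline. Duplicate 10-point half-log titration from 1 μM applied to 750 cells/well in RPMI, 10% FBS, 0.05 mM 2-mercaptoethanol.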

O=C1CCC(N2C(=O)c3cccc(NCc4cnn(C5CCN(C(=O)Cc6ccc(F)cc6)CC5)c4)c3C2=O)C(=O)N1 (stereo not drawn) [Compound 25, 2-(2,6-dioxopiperidin-3-yl)-4-(((1-(1-(2-(4-fluorophenyl)acetyl)piperidin-4-yl)-1H-pyrazol-4-yl)methyl)amino)isoindoline-1,3-dione]
GI50: < 100 nM

O=C1CCC(N2C(=O)c3cccc(NCc4cnn(C5CCN(C(=O)Cc6ccc7c(c6Cl)OCCCO7)CC5)c4)c3C2=O)C(=O)N1 (stereo not drawn) [Compound 124, 4-(((1-(1-(2-(6-chloro-3,4-dihydro-2H-benzo[b][1,4]dioxepin-7-yl)acetyl)piperidin-4-yl)-1H-pyrazol-4-yl)methyl)amino)-2-(2,6-dioxopiperidin-3-yl)isoindoline-1,3-dione]
GI50: < 100 nM

O=C1CCC(N2C(=O)c3cccc(NCc4cnn(C5CCN(C(=O)C6CCOCC6)CC5)c4)c3C2=O)C(=O)N1 (stereo not drawn) [Compound 11, 2-(2,6-dioxopiperidin-3-yl)-4-(((1-(1-(tetrahydro-2H-pyran-4-carbonyl)piperidin-4-yl)-1H-pyrazol-4-yl)methyl)amino)isoindoline-1,3-dione]
GI50: < 100 nM

O=C1CCC(N2C(=O)c3cccc(NCc4cnn(C5CCN(C(=O)[C@H]6CCCO6)CC5)c4)c3C2=O)C(=O)N1 (stereo partly drawn) [Compound 38, 2-(2,6-dioxopiperidin-3-yl)-4-(((1-(1-((R)-tetrahydrofuran-2-carbonyl)piperidin-4-yl)-1H-pyrazol-4-yl)methyl)amino)isoindoline-1,3-dione]
GI50: < 100 nM

O=C1CCC(N2C(=O)c3cccc(NCc4cnn(C5CCN(C(=O)Cc6coc(-c7ccccc7)n6)CC5)c4)c3C2=O)C(=O)N1 (stereo not drawn) [Compound 116, 2-(2,6-dioxopiperidin-3-yl)-4-(((1-(1-(2-(2-phenyloxazol-4-yl)acetyl)piperidin-4-yl)-1H-pyrazol-4-yl)methyl)amino)isoindoline-1,3-dione]
GI50: < 100 nM

O=C1CCC(N2C(=O)c3cccc(NCc4cnn(C5CCN(C(=O)C6(O)CCC6)CC5)c4)c3C2=O)C(=O)N1 (stereo not drawn) [Compound 84, 2-(2,6-dioxopiperidin-3-yl)-4-(((1-(1-(1-hydroxycyclobutane-1-carbonyl)piperidin-4-yl)-1H-pyrazol-4-yl)methyl)amino)isoindoline-1,3-dione]
GI50: < 100 nM

CC(C)(O)C(=O)N1CCC(n2cc(CNc3cccc4c3C(=O)N(C3CCC(=O)NC3=O)C4=O)cn2)CC1 (stereo not drawn) [Compound 52, 2-(2,6-dioxopiperidin-3-yl)-4-(((1-(1-(2-hydroxy-2-methylpropanoyl)piperidin-4-yl)-1H-pyrazol-4-yl)methyl)amino)isoindoline-1,3-dione]
GI50: < 100 nM

CN1CCC(n2cc(CNc3cccc4c3C(=O)N(C3CCC(=O)NC3=O)C4=O)cn2)CC1 (stereo not drawn) [Compound 157, 2-(2,6-dioxo-3-piperidyl)-4-[[1-(1-methyl-4-piperidyl)pyrazol-4-yl]methylamino]isoindoline-1,3-dione]
GI50: < 100 nM

CC(C)(C)OC(=O)N1C2CCC1CC(n1cc(CNc3cccc4c3C(=O)N(C3CCC(=O)NC3=O)C4=O)cn1)C2 (stereo not drawn) [Compound 166, tert-Butyl 3-(4-(((2-(2,6-dioxopiperidin-3-yl)-1,3-dioxoisoindolin-4-yl)amino)methyl)-1H-pyrazol-1-yl)-8-azabicyclo[3.2.1]octane-8-carboxylate]
GI50: < 100 nM

CCC1(C(=O)N2CCC(n3cc(CNc4cccc5c4C(=O)N(C4CCC(=O)NC4=O)C5=O)cn3)CC2)CCC1 (stereo not drawn) [Compound 86, 2-(2,6-dioxopiperidin-3-yl)-4-(((1-(1-(1-ethylcyclobutane-1-carbonyl)piperidin-4-yl)-1H-pyrazol-4-yl)methyl)amino)isoindoline-1,3-dione]
GI50: < 100 nM

O=C1CCC(N2C(=O)c3cccc(NCc4cnn(C5CCN(C(=O)C6(c7ccc(F)cc7)CCCC6)CC5)c4)c3C2=O)C(=O)N1 (stereo not drawn) [Compound 77, 2-(2,6-dioxopiperidin-3-yl)-4-(((1-(1-(1-(4-fluorophenyl)cyclopentane-1-carbonyl)piperidin-4-yl)-1H-pyrazol-4-yl)methyl)amino)isoindoline-1,3-dione]
GI50: < 1 nM

CC1(C(=O)N2CCC(n3cc(CNc4cccc5c4C(=O)N(C4CCC(=O)NC4=O)C5=O)cn3)CC2)CCOCC1 (stereo not drawn) [Compound 64, 2-(2,6-dioxopiperidin-3-yl)-4-(((1-(1-(4-methyltetrahydro-2H-pyran-4-carbonyl)piperidin-4-yl)-1H-pyrazol-4-yl)methyl)amino)isoindoline-1,3-dione]
GI50: < 100 nM

O=C1CCC(N2C(=O)c3cccc(NCc4cnn(C5CCN(C(=O)C6CCC6)CC5)c4)c3C2=O)C(=O)N1 (stereo not drawn) [Compound 14, 4-(((1-(1-(cyclobutanecarbonyl)piperidin-4-yl)-1H-pyrazol-4-yl)methyl)amino)-2-(2,6-dioxopiperidin-3-yl)isoindoline-1,3-dione]
GI50: < 100 nM

O=C1CCC(N2C(=O)c3cccc(NCc4cnn(C5CCN(C(=O)c6cnco6)CC5)c4)c3C2=O)C(=O)N1 (stereo not drawn) [Compound 7, 2-(2,6-dioxopiperidin-3-yl)-4-(((1-(1-(oxazole-5-carbnonyl)piperidin-4-yl)-1H-pyrazol-4-yl)methyl)amino)isoindoline-1,3-dione]
GI50: < 100 nM

CC1(C(=O)N2CCC(n3cc(CNc4cccc5c4C(=O)N(C4CCC(=O)NC4=O)C5=O)c(Cl)n3)CC2)CCC1 (stereo not drawn) [Compound 191, 4-[[3-chloro-1-[1-(1-methylcyclobutanecarbonyl)-4-piperidyl]pyrazol-4-yl]methylamino]-2-(2,6-dioxo-3-piperidyl)isoindoline-1,3-dione]
GI50: < 1 nM

O=C1CCC(N2C(=O)c3cccc(NCc4cnn(C5CCN(C(=O)C6CC6)CC5)c4)c3C2=O)C(=O)N1 (stereo not drawn) [Compound 24, 4-(((1-(1-(cyclopropanecarbonyl)piperidin-4-yl)-1H-pyrazol-4-yl)methyl)amino)-2-(2,6-dioxopiperidin-3-yl)isoindoline-1,3-dione]
GI50: < 100 nM

CC1(C)C(C(=O)N2CCC(n3cc(CNc4cccc5c4C(=O)N(C4CCC(=O)NC4=O)C5=O)cn3)CC2)C1(C)C (stereo not drawn) [Compound 89, 2-(2,6-dioxopiperidin-3-yl)-4-(((1-(1-(2,2,3,3,3-tetramethylcyclopropane-1-carbonyl)piperidin-4-yl)-1H-pyrazol-4-yl)methyl)amino)isoindoline-1,3-dione]
GI50: < 1 nM

O=C1CCC(N2C(=O)c3cccc(NCc4cnn(C5CCN(C(=O)C67C8C9C%10C8C6C%10C97)CC5)c4)c3C2=O)C(=O)N1 [Compound 95, 4-(((1-(1-((1s,4R,3R,4r,5r,6S,7S,8s)-cubane-1-carbonyl)piperidin-4-yl)-1H-pyrazol-4-yl)methyl)amino)-2-(2,6-dioxopiperidin-3-yl)isoindoline-1,3-dione]
GI50: < 1 nM

CC(C)(C)OC(=O)CN1CC(n2cc(CNc3cccc4c3C(=O)N(C3CCC(=O)NC3=O)C4=O)cn2)C1 (stereo not drawn) [Compound 184, tert-butyl 2-(3-(4-(((2-(2,6-Dioxopiperidin-3-yl)-1,3-dioxoisoindolin-4-yl)amino)methyl)-1H-pyrazol-1-yl)azetidin-1-yl)acetate]
GI50: < 100 nM

O=C1CCC(N2C(=O)c3cccc(NCc4cnn(C5CCN(C(=O)C6CCN(C(=O)C7CCC7)CC6)CC5)c4)c3C2=O)C(=O)N1 (stereo not drawn) [Compound 112, 4-(((1-(1-(1-(cyclobutanecarbonyl)piperidine-4-carbonyl)piperidin-4-yl)-1H-pyrazol-4-yl)methyl)amino)-2-(2,6-dioxopiperidin-3-yl)isoindoline-1,3-dione]
GI50: < 100 nM

O=C1CCC(N2C(=O)c3cccc(NCc4cnn(C5CCN(C(=O)C6CCCCC6)CC5)c4)c3C2=O)C(=O)N1 (stereo not drawn) [Compound 22, 4-(((1-(1-(cyclohexanecarbonyl)piperidin-4-yl)-1H-pyrazol-4-yl)methyl)amino)-2-(2,6-dioxopiperidin-3-yl)isoindoline-1,3-dione]
GI50: < 100 nM

O=C1CCC(N2C(=O)c3cccc(NCc4cnn(C5CCN(C(=O)C67CC(F)(C6)C7)CC5)c4)c3C2=O)C(=O)N1 (stereo not drawn) [Compound 78, 2-(2,6-dioxopiperidin-3-yl)-4-(((1-(1-(3-fluorobicyclo[1.1.1]pentane-1-carbonyl)piperidin-4-yl)-1H-pyrazol-4-yl)methyl)amino)isoindoline-1,3-dione]
GI50: < 100 nM

CC(=O)N1C2CCC1CC(n1cc(CNc3cccc4c3C(=O)N(C3CCC(=O)NC3=O)C4=O)cn1)C2 (stereo not drawn) [Compound 156, 4-[[1-(8-acetyl-8-azabicyclo[3.2.1]octan-3-yl)pyrazol-4-yl]methylamino]-2-(2,6-dioxo-3-piperidyl)isoindoline-1,3-dione]
GI50: < 100 nM

CN(C)CCC(Nc1cccc2c1C(=O)N(C1CCC(=O)NC1=O)C2=O)c1cnn(C2CCN(C(=O)OC(C)(C)C)CC2)c1 (stereo not drawn) [Compound 187, tert-Butyl 4-(4-(3-(dimethylamino)-1-((2-(2,6-dioxopiperidin-3-yl)-1,3-dioxoisoindolin-4-yl)amino)propyl)-1H-pyrazol-1-yl)piperidine-1-carboxylate]
GI50: > 100 nM

O=C1CCC(N2C(=O)c3cccc(NCc4cnn(C5CCN(C(=O)OCC(Cl)(Cl)Cl)CC5)c4)c3C2=O)C(=O)N1 (stereo not drawn) [Compound 148, 2,2,2-trichloroethyl 4-(4-(((2-(2,6-dioxopiperidin-3-yl)-1,3-dioxoisoindolin-4-yl)amino)methyl)-1H-pyrazol-1-yl)piperidine-1-carboxylate]
GI50: < 100 nM

CC(C)(C)OC(=O)N1CCC(n2ncc(CNc3cccc4c3C(=O)N(C3CCC(=O)NC3=O)C4=O)c2CC(=O)C2CC2)CC1 (stereo not drawn) [Compound 189, tert-Butyl 4-[5-(2-cyclopropyl-2-oxo-ethyl)-4-[[[2-(2,6-dioxo-3-piperidyl)-1,3-dioxo-isoindolin-4-yl]amino]methyl]pyrazol-1-yl]piperidine-1-carboxylate]
GI50: < 100 nM

C[C@@H](C(=O)N1CCC(n2cc(CNc3cccc4c3C(=O)N(C3CCC(=O)NC3=O)C4=O)cn2)CC1)c1ccccc1 (stereo partly drawn) [Compound 48, 2-(2,6-dioxopiperidin-3-yl)-4-(((1-(1-((R)-2-phenylpropanoyl)piperidin-4-yl)-1H-pyrazol-4-yl)methyl)amino)isoindoline-1,3-dione]
GI50: < 100 nM
